Results from ChEMBL document CHEMBL2375291, “Discovery of a series of novel 5H-pyrrolo[2,3-b]pyrazine-2-phenyl ethers, as potent JAK3 kinase inhibitors” (Bioorg Med Chem Lett, 2013).

target: Tyrosine-protein kinase JAK1 (Homo sapiens, UniProt P23458)

SMILES | IC50
CC(=O)N[C@@H]1CCc2ccc(Oc3cnc4[nH]cc(C(=O)N[C@@H](C(=O)N5CC(C#N)C5)C5CC5)c4n3)cc21 | 262 nM
CC(C)NC(=O)c1c[nH]c2ncc(Oc3cccc(C#N)c3)nc12 | 3190 nM
CC(=O)N[C@H]1CCc2ccc(Oc3cnc4[nH]cc(C(=O)NC(C)C)c4n3)cc21 | 4390 nM
CC(=O)N[C@@H]1CCc2ccc(Oc3cnc4[nH]cc(C(=O)N[C@@H](C)C5CC5)c4n3)cc21 | 863 nM
Cc1cccc(Oc2cnc3[nH]cc(C(=O)NC(C)C)c3n2)c1 | 2150 nM
CC(C)NC(=O)c1c[nH]c2ncc(Oc3ccc(C#N)cc3)nc12 | 3470 nM
COc1cc(OC)cc(Oc2cnc3[nH]cc(C(=O)NC(C)C)c3n2)c1 | 8220 nM
CC(C)NC(=O)c1c[nH]c2ncc(Oc3ccccc3)nc12 | 840 nM
CC(=O)N[C@@H]1CCc2ccc(Oc3cnc4[nH]cc(C(=O)N[C@@H](C(=O)N5CC(C#N)C5)C(C)(C)C)c4n3)cc21 | 863 nM
CC(=O)N[C@@H]1CCc2ccc(Oc3cnc4[nH]cc(C(=O)N[C@H](C)C(=O)N5CC(C#N)C5)c4n3)cc21 | 11600 nM
CC(NC(=O)c1c[nH]c2ncc(Oc3ccccc3)nc12)C1CC1 (stereo not drawn) | 220 nM
CCc1cccc(Oc2cnc3[nH]cc(C(=O)NC(C)C)c3n2)c1 | 4160 nM
CC(=O)N[C@@H]1CCc2ccc(Oc3cnc4[nH]cc(C(=O)N[C@H](C)C5CC5)c4n3)cc21 | 2080 nM
CC(=O)N[C@@H]1CCc2ccc(Oc3cnc4[nH]cc(C(=O)NC(C)C)c4n3)cc21 | 6300 nM
Cc1ccccc1Oc1cnc2[nH]cc(C(=O)NC(C)C)c2n1 | 5090 nM
CC(C)NC(=O)c1c[nH]c2ncc(Oc3ccc4c(c3)CCC4)nc12 | 3320 nM

target: T1, Tyrosine-protein kinase JAK3 (Homo sapiens, UniProt P52333)
T1 sequence (P52333 whole entry): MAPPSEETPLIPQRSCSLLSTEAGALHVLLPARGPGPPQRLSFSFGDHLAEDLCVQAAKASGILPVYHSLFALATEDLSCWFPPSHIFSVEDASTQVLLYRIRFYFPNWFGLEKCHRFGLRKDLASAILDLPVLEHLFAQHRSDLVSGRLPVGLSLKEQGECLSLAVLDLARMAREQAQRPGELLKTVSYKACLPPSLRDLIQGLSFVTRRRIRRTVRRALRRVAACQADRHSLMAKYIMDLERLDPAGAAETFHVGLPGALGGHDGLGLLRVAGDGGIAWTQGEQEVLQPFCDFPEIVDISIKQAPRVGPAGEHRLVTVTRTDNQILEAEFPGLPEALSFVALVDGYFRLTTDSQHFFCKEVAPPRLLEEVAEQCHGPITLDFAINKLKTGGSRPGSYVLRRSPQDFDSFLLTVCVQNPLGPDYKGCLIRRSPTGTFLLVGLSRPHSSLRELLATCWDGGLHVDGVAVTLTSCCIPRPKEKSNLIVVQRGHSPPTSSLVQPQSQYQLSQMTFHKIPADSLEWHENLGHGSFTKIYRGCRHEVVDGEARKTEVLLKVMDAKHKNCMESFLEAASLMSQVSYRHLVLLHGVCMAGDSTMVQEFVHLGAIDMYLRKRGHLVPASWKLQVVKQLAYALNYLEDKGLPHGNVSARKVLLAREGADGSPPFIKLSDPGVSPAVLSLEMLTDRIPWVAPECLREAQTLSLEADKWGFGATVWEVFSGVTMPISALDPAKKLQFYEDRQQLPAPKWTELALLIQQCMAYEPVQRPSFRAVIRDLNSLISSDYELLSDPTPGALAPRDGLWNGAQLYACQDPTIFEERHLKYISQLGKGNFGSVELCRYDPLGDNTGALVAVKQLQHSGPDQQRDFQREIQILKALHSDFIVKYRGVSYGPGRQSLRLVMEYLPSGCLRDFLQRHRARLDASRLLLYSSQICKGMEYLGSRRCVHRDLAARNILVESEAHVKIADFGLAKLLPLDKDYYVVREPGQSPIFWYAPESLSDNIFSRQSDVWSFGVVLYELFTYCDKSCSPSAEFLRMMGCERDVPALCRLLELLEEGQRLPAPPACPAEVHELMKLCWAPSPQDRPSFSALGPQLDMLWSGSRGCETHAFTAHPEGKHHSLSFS

SMILES | IC50
CC(=O)N[C@@H]1CCc2ccc(Oc3cnc4[nH]cc(C(=O)N[C@@H](C(=O)N5CC(C#N)C5)C5CC5)c4n3)cc21 | 5 nM
CC(=O)N[C@@H]1CCc2ccc(Oc3cnc4[nH]cc(C(=O)N[C@H](C)C(=O)N5CC(C#N)C5)c4n3)cc21 | 112 nM
